Results on six compounds are retold here after patent US20110262977A1, “PROCESS FOR PRODUCTION OF OPTICALLY ACTIVE AMINE DERIVATIVE” (Daicel Chemical Industries, Ltd., priority 2008, published 2011).

In test [1] the test system is imine reductase derived from Streptomyces sp. GF3546. Put plainly: Substrate specificity of imine reductase: NADPH/NADH-dependent imine-reducing activity (decrease in absorbance at 340 nm). It is filed as biochemical. On the procedure:
A reaction mixture containing the enzyme, 100 mM potassium phosphate buffer (pH 7.0), 0.2 mM NADPH, and 10 mM 2-methyl-1-pyrrolin was incubated at 30° C. The reaction mixture was assayed to determine the decrease in absorbance at 340 nm due to the decrease of NADPH. The amount of enzyme that catalyzes the decrease of 1 μmol of NADPH per minute was defined as 1 U.
(§1) The enzyme prepared as described in Example 4 was incubated with various imine compounds.

For test [2] the test system is unchanged. Put plainly: Substrate specificity of imine reductase: NADP+-dependent amine-oxidizing activity (increase in absorbance at 340 nm). Particulars: oxidation, substrate 10 mM, coenzyme NADP+. Format: biochemical. How it is done:
A reaction mixture containing 100 mM glycine/potassium chloride/potassium hydroxide buffer 10.5, 2.5 mM NADP^+, 10 mM (S)-2-methylpyrrolidine, and the enzyme was incubated at 30° C. The reaction mixture was assayed to determine the increase in absorbance at 340 nm due to the increase of NADPH. The amount of enzyme that catalyzes the increase of 1 μmol of NADPH per minute was defined as 1 U.
as §1

Setting [3] is: substrate 10 mM, coenzyme NADPH, activity of reducing 2-methyl-1-pyrroline taken as 100.
The mark [4] stands for this setting: first % column, activity of reducing 2-methyl-1-pyrroline taken as 100.
Where [5] appears, read: second % column, (S)-2-methylpyrrolidine = 100.0.

With `CC(=Nc1ccccc1)c1ccccc1` (mixture of isomers) [N-((E/Z)-N-(1-phenylethylidene)aniline], in test [1] (setting [3]), the Relative activity was determined as 5.3%.

As to `C[C@H]1CCCN1` [(S)-2-Methylpyrrolidine], the Relative activity is 44.1% in test [2] (setting [4]) and 100.0% in test [2] (setting [5]).

Consider `CC1=NCCC1` [2-Methyl-1-pyrroline], for which the Relative activity was found to be 0.0% in test [1] (substrate 10 mM, coenzyme NADH, activity of reducing 2-methyl-1-pyrroline (NADPH) taken as 100) and 100.0% in test [1] (setting [3]).

In turn, `COc1cc2c(cc1OC)C(C)=NCC2` [1-Methyl-6,7-dimethoxy-3,4-dihydroisoquinoline] yielded a Relative activity in test [1] (substrate 0.05 mM, coenzyme NADPH, activity of reducing 2-methyl-1-pyrroline taken as 100) of 8.9%.

On to `C(=NCc1ccccc1)c1ccccc1` [N-Benzylidenebenzylamine], for which the Relative activity in test [1] (setting [3]) stood at 20.9%.

Regarding `C[C@@H]1CCCN1` [(R)-2-Methylpyrrolidine], the Relative activity is on record as 7.7% in test [2] (setting [4]) and 17.4% in test [2] (setting [5]).
